Experiment [1] deals with Acinetobacter baumannii 03.021.1 (GN_039), Colistin resistant. Kind of experiment: Synergy of cannabidiol with cell-wall disrupting agent (CBD MIC in combination, FICI). The class given is cell-based. To be noted: for MIC: Acinetobacter baumannii. As for the experimental part:
(§1) The compounds were stored short term at 4° C.
(§2) Analysis was performed using Microsoft Excel.

Experiment [2] relates to Klebsiella pneumoniae BAA-2146 (GN_045), NDM-1. Described as above. The class given is cell-based. The note with it: for MIC: Klebsiella pneumoniae. As for the experimental part: as §1, §2
Where [3] appears, read: Example 9, GN_039, listed as CBD.

Molecules are shown by their SMILES. Like-named read-outs stand apart in the source and are kept apart here.

For `C=C(C)C1CCC(C)=CC1c1c(O)cc(CCCCC)cc1O` (stereo not shown) [Cannabidiol, 2-[3-methyl-6-(1-methylethenyl)-2-cyclohexen-1-yl]-5-pentyl-1,3-benzenediol], the MIC in experiment [1] (read-out: CBD MIC with MCC_00636 at concentration 0.25 μg/mL, Example 8, GN_039) came to 4 µg/mL; in experiment [1] (read-out: CBD MIC with MCC_00636 at concentration 0.5 μg/mL, Example 8, GN_039), 0.000977 µg/mL; in experiment [1] (read-out: CBD MIC with MCC_00636 at concentration 1 μg/mL, Example 8, GN_039), 0.000977 µg/mL; in experiment [1] (read-out: CBD MIC with MCC_00636 at concentration […], Example 8, GN_039) it was 4 µg/mL; in experiment [1] (read-out: CBD MIC with MCC_09222 at concentration 16 μg/mL, Example 9, GN_039), 1 µg/mL; in experiment [1] (read-out: CBD MIC with MCC_09222 at concentration 32 μg/mL, Example 9, GN_039), 0.5 µg/mL. The MIC in experiment [1] (read-out: CBD MIC with MCC_09222 at concentration 64 μg/mL, Example 9, GN_039) is 0.000977 µg/mL; in experiment [1] (read-out: CBD MIC with MCC_09222 at concentration 128 μg/mL, Example 9, GN_039), 0.000977 µg/mL; in experiment [2] (BAA2146, read-out: CBD MIC with MCC_09222 at concentration 8 μg/mL, Example 9, GN_045), 16 µg/mL; in experiment [2] (BAA2146, read-out: CBD MIC with MCC_09222 at concentration 16 μg/mL, Example 9, GN_045), 4 µg/mL; in experiment [2] (BAA2146, read-out: CBD MIC with MCC_09222 at concentration 32 μg/mL, Example 9, GN_045), 2 µg/mL; in experiment [2] (BAA2146, read-out: CBD MIC with MCC_09222 at concentration 64 μg/mL, Example 9, GN_045), 2 µg/mL. Moreover, the MIC in experiment [2] (BAA2146, read-out: CBD MIC with MCC_09222 at concentration 128 μg/mL, Example 9, GN_045) was 0.000977 µg/mL. The “cannabidiol combined with Polymyxin B: synergy” value in experiment [1] (Example 8) is “synergy”. Further, the “cannabidiol in combination with MCC_09222: synergy” value in experiment [1] (Example 9) and in experiment [2] (Example 9) was “synergistic effect” throughout. The “CBD MIC with MCC_09222 at concentration 16 μg/mL” value in experiment [1] (setting [3]) is 2 µg/mL; in experiment [2] (Example 9, GN_045, listed as CBD) it was 2 µg/mL. Moreover, the “CBD MIC with MCC_09222 at concentration 32 μg/mL” value in experiment [1] (setting [3]) amounted to 1 µg/mL.

Values taken from patent publication US20230013669A1, “Antibacterial Treatment Using a Cannabinoid and an Active Agent” (priority 2019, published 2023).
